Source: patent US4748240A, “Psychotropic bicyclic imides” (American Home Products Corporation, priority 1987, dated 1988)
Like-named read-outs stand apart in the source and are kept apart here.

Experiments:
[1] = system: apomorphine-induced stereotyped behavior and climbing; experiment: Antagonism of apomorphine-induced stereotyped behavior and climbing; assay type: in vivo, mouse (CF-1, Charles River); conditions: for Apomorphine Antagonism, Stereotypy ED50 / Apomorphine Antagonism, Climbing ED50: p.o.; for Apomorphine Antagonism, Stereotypy ED50 / ED50 / Apomorphine Antagonism, Climbing ED50: apomorphine 1 mg/kg s.c.; for ED50: Mus musculus, po; for Ratio of ED50 for stereotyped behavior to ED50 for climbing: standard antipsychotic drugs, high ratio = low extrapyramidal liability
Description: Readings are repeated every five minutes during a thirty minute test session. […] The ratio of the ED50 for stereotyped behavior of the ED50 for climbing is calculated.

[2] = system: conditioned avoidance responding; experiment: Conditioned avoidance, shelf-jump response; assay type: in vivo, rat (male CD, Charles River); conditions: Rattus norvegicus, ip; single dose 40 mg/kg
Source text: (§1) The antipsychotic properties of the compounds of this invention were established by standard pharmacologically accepted procedures involving conditioned avoidance studies in which trained male CD rats (Charles River), 400-450 g. body weight are exposed to a fifteen second warning tone (conditioned stimulus) continued for an additional fifteen seconds accompanied by electric shock. The rat can avoid the electric shock by jumping to an exposed shelf (shelf-jump response). A response during the initial warning tone is considered an avoidance response, while a response during shock delivery is considered as escape response. The shelf-jump response test procedure follows that of Herman et al., Comm. in Psychopharm., 3, pp. 165-171 (1979). The compounds of this invention were tested at a single dose (40 mg./kg. i.p.) in this procedure and were rated relative to their inhibition of conditioned avoidance responding. A similar test procedure (Discrete Trial) in which a lever press was substituted for a shelf-jump was used to establish the oral (p.o.) activity of the test compounds. Orally active compounds were tested over a full dose range and the Avoidance Block activities reported as "AB50 's" (mg./kg.).

[3] = system: conditioned avoidance responding; experiment: Conditioned avoidance, Discrete Trial (lever press); assay type: in vivo, rat (male CD, Charles River); conditions: for Conditioned Avoidance, Discrete Trial AB50: p.o.; for ED50: Rattus norvegicus, po, read-out: Conditioned Avoidance, Discrete Trial AB50
Source text: as §1

D-2 dopamine receptor = target: T1, D-2 dopamine receptor (Rattus norvegicus, UniProt P61169); experiment: [^3 H] Spiroperidol binding inhibition (D-2 dopamine receptor, homogenized limbic brain tissue)
T1 construct: from tissue; host or cells: homogenized limbic brain tissue
Source text: The results of this testing with compounds representative of the invention whose production is exemplified, infra, are as follows: […]

[4] = target: T2, 5-HT1A serotonin receptor (Rattus norvegicus, UniProt P19327); experiment: Inhibition of [^3 H] 8-OH DPAT binding
T2 construct: from tissue
T2 sequence (P19327 1-422): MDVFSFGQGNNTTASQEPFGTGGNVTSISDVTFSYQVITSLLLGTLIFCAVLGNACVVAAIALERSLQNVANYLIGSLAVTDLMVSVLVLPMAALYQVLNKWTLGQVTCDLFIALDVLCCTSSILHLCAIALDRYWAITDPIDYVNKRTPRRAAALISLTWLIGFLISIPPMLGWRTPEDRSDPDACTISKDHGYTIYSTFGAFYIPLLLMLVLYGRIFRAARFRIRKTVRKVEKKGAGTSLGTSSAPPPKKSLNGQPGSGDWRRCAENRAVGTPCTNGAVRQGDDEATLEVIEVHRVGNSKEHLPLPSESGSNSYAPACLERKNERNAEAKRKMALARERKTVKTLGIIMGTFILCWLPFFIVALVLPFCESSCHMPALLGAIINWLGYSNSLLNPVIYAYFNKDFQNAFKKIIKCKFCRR
Source text: 8-OH DPAT (dipropylaminotetralin) from the 5-HT1A serotonin receptor by the procedure of Hall et al., J. Neurochem.

[5] = read-out: Apomorphine Antagonism, Climbing ED50
[6] = read-out: Apomorphine Antagonism, Stereotypy ED50

T1 sequence (P61169 whole entry): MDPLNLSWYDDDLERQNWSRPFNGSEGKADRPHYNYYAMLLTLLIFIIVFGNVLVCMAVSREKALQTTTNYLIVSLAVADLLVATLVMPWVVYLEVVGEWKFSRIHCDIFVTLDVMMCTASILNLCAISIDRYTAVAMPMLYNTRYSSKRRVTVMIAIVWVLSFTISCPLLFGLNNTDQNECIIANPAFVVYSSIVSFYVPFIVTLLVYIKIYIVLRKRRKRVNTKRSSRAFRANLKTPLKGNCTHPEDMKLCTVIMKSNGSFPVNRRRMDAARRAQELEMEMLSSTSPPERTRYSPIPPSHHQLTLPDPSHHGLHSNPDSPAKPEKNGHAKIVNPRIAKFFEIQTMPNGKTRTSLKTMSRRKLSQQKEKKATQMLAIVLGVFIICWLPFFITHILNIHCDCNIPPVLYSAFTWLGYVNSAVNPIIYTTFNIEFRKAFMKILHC

Row | Structure (SMILES) | inhibition at 1 µM (D-2 dopamine receptor) | Ki [4] | Ki (D-2 dopamine receptor) | inhibition at 1 µM [4] | Apomorphine Antagonism, Stereotypy ED50 [1] | inhibition in vivo at 40 mg/kg [2] | Conditioned Avoidance, Discrete Trial AB50 [3] | ED50 [1, 5] | Apomorphine Antagonism, Climbing ED50 [1] | ED50 [3] | ED50 [1, 6] | Affinity for the 5-HT1A serotonin receptor (in words) [4] | Ratio of ED50 for stereotyped behavior to ED50 for climbing [1]
1 | O=C1C2CCCC(C2)C(=O)N1CCCCN1CCN(c2ncccn2)CC1 [Example 1, 3-[4-[4-(2-Pyrimidinyl)-1-piperazinyl]butyl]-3-azabicyclo[3.3.1]nonane-2,4-dione] | 38% | 0.01 µM |  |  | inactive | ~80% | inactive |  |  |  |  |  | 
2 | O=C1C2CCC(C2)C(=O)N1CCCCN1CCN(c2ncccn2)CC1 [Example 2, 3-[4-[4-(2-Pyrimidinyl)-1-piperazinyl]butyl]-3-azabicyclo[3.2.1]octane-2,4-dione] |  | 0.106 µM | 2.61 µM |  | inactive | > 20% | weak |  |  |  |  |  | 
3 | O=C1C2CCCC(C(=O)N1CCCCN1CCN(c3ncccn3)CC1)[S+]2[O-] (stereo not drawn) [Example 6, 3-[4-[4-(2-Pyrimidinyl)-1-piperazinyl]butyl]-9-thia-3-azabicyclo[3.3.1]nonane-2,4-dione-9-oxide] | 14% | 0.09 µM |  |  | inactive | > 20% | inactive |  | inactive |  |  |  | 
4 | O=C1C2CCCC(C2)C(=O)N1CCCCN1CCN(c2cncc(Cl)n2)CC1 [Example 7, 2-[4-[4-(6-Chloro-2-pyrazinyl)-1-piperazinyl]butyl]-3-azabicyclo[3.3.1]nonane-2,4-dione] | 21% | 0.031 µM |  |  | inactive | ~80% |  |  |  | 34.1 mg/kg |  |  | 
5 | O=C1C2CCC(C2)C(=O)N1CCCCN1CCN(c2cncc(Cl)n2)CC1 [Example 8, 3-[4-[4-(6-Chloro-2-pyrazinyl)-1-piperazinyl]butyl]-3-azabicyclo[3.2.1]octane-2,4-dione] | 12% |  |  | 68% | inactive | ~80% |  | 15.7 mg/kg |  | 33.6 mg/kg |  |  | 
6 | O=C1C2CCC(O2)C(=O)N1CCCCN1CCN(c2cncc(Cl)n2)CC1 [Example 12, 3-[4-[4-(6-Chloro-2-pyrazinyl)-1-piperazinyl]butyl]-8-oxa-3-azabicyclo[3.2.1]octane-2,4-dione] | 7% |  |  | 54% | inactive | > 20% | weak | 51.6 mg/kg |  |  |  |  | 
7 | O=C1C2CCCC(C2)C(=O)N1CCCCN1CCN(c2cnccn2)CC1 [Example 16, 3-[4-[4-(2-Pyrazinyl)-1-piperazinyl]butyl]-3-azabicyclo[3.3.1]nonane-2,4-dione] | 12% | 0.129 µM |  |  |  | ~80% | inactive | 9.17 mg/kg |  |  | 54.1 mg/kg |  | 
8 | CC1(C)C2CCC1C(=O)N(CCCCN1CCN(c3cncc(Cl)n3)CC1)C2=O [Example 18, 3-[4-[4-(6-Chloro-2-pyrazinyl)-1-piperazinyl]butyl]-8,8-dimethyl-3-azabicyclo[3.2.1]octane-2,4-dione] | 21% |  |  | 76% | inactive | > 20% | inactive | 43 mg/kg |  |  |  |  | 
9 | O=C1CC2(CCCC2)CC(=O)N1CCCCN1CCN(c2ncccn2)CC1 [buspirone, reference compound] |  |  |  |  |  |  |  |  |  |  |  | potent affinity | 
10 | CN(C)CCCN1c2ccccc2Sc2ccc(Cl)cc21 [chlorpromazine, reference compound] |  |  |  |  |  |  |  |  |  |  |  |  | 1.51
11 | O=C(CCCN1CCC(O)(c2ccc(Cl)cc2)CC1)c1ccc(F)cc1 [haloperidol, reference compound] |  |  |  |  |  |  |  |  |  |  |  |  | 1.00

Further lines, with some results ahead:

Row | inhibition at 1 µM (D-2 dopamine receptor) | Ki [4] | Ki (D-2 dopamine receptor) | inhibition at 1 µM [4] | Structure (SMILES) | Apomorphine Antagonism, Stereotypy ED50 [1] | inhibition in vivo at 40 mg/kg [2] | Conditioned Avoidance, Discrete Trial AB50 [3] | ED50 [1, 5] | Apomorphine Antagonism, Climbing ED50 [1] | ED50 [3] | ED50 [1, 6] | Affinity for the 5-HT1A serotonin receptor (in words) [4] | Ratio of ED50 for stereotyped behavior to ED50 for climbing [1]
12 | 44% | 0.031 µM |  |  | O=C1C2CCC(O2)C(=O)N1CCCCN1CCN(c2ncccn2)CC1 [Example 3, 3-[4-[4-(2-Pyrimidinyl)-1-piperazinyl]butyl]-8-oxa-3-azabicyclo[3.2.1]octane-2,4-dione] | inactive | ~80% | weak |  |  |  |  |  | 
13 | 12% | 0.046 µM |  |  | O=C1C2CCC(S2)C(=O)N1CCCCN1CCN(c2ncccn2)CC1 [Example 4, 3-[4-[4-(2-Pyrimidinyl)-1-piperazinyl]butyl]-8-thia-3-azabicyclo[3.2.1]octane-2,4-dione] | inactive | > 20% | inactive | 53.3 mg/kg |  |  |  |  | 
14 | 27% | 0.016 µM |  |  | O=C1C2CCCC(S2)C(=O)N1CCCCN1CCN(c2ncccn2)CC1 [Example 5, 3-[4-[4-(2-Pyrimidinyl)-1-piperazinyl]butyl]-9-thia-3-azabicyclo[3.3.1]nonane-2,4-dione] | inactive | > 20% |  |  | inactive | 47.3 mg/kg |  |  | 
15 | 31% | 0.06 µM |  |  | O=C1C2CCC(C2)C(=O)N1CCCCN1CCN(c2ccc3ccccc3n2)CC1 [Example 9, 3-[4-[4-(2-Quinolyl)-1-piperazinyl]butyl]-3-azabicyclo[3.2.1]octane-2,4-dione] | inactive | > 20% |  | 40.9 mg/kg |  | 98.2 mg/kg |  |  | 
16 |  | 0.00361 µM | 0.08 µM |  | O=C1C2CCC(C2)C(=O)N1CCCCN1CCN(c2cccc(C(F)(F)F)c2)CC1 [Example 10, 3-[4-[4-[3-(Trifluoromethyl)phenyl]-1-piperazinyl]butyl]-3-azabicyclo[3.2.1]octane-2,4-dione] |  | ~80% |  | 1.05 mg/kg |  | 7.03 mg/kg | 4.98 mg/kg |  | 
17 |  | 0.00389 µM | 0.13 µM |  | O=C1C2CCC(C2)C(=O)N1CCCCN1CCN(c2cccc(Cl)c2)CC1 [Example 11, 3-[4-[4-(3-Chlorophenyl)-1-piperazinyl]butyl]-3-azabicyclo[3.2.1]octane-2,4-dione] |  | ~80% |  | 0.79 mg/kg |  | 27.1 mg/kg | 2.2 mg/kg |  | 
18 | 17% | 0.122 µM |  |  | O=C1C2CCCC(O2)C(=O)N1CCCCN1CCN(c2ncccn2)CC1 [Example 13, 3-[4-[4-(2-Pyrimidinyl)-1-piperazinyl]butyl]-9-oxa-3-azabicyclo[3.3.1]nonane-2,4-dione] | inactive | ~80% |  | 0.24 mg/kg |  | 86.2 mg/kg |  |  | 
19 | 34% | 0.0352 µM |  |  | O=C1C2CCCC(S2)C(=O)N1CCCCN1CCN(c2cncc(Cl)n2)CC1 [Example 14, 3-[4-[4-(6-Chloro-2-pyrazinyl)-1-piperazinyl]butyl]-9-thia-3-azabicyclo[3.3.1]nonane-2,4-dione] | inactive | > 20% |  |  |  | 35.6 mg/kg |  |  | 
20 | 21% |  |  | 63% | O=C1C2CCCC(O2)C(=O)N1CCCCN1CCN(c2cncc(Cl)n2)CC1 [Example 15, 3-[4-[4-(6-Chloro-2-pyrazinyl)-1-piperazinyl]butyl]-9-oxa-3-azabicyclo[3.3.1]nonane-2,4-dione] | inactive | ~80% | weak |  |  |  |  |  | 
21 | 0% | 0.005 µM |  |  | COc1ccccc1N1CCN(CCCCN2C(=O)C3CCC(C3)C2=O)CC1 [Example 17, 3-[4-[4-(2-Methoxyphenyl)-1-piperazinyl]butyl]-3-azabicyclo[3.2.1]octane-2,4-dione] |  | ~80% |  | 0.83 mg/kg |  | 29.4 mg/kg | 5.83 mg/kg |  | 
